Reference: PubChem BioAssay AID1963838 (Molecular Pharmacology Branch, DTP, NCI, 2024)

System: 855422-203-R-J1-PDC complex spheroid viability
Assay: Anticancer human tumor 855422-203-R-J1-PDC patient-derived bladder carcinoma cell line growth inhibition [POLQ]
Conditions: for IC50: curve of first compound; for viability, T/C: stronger effect = lower value
How it was run: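 Growth inhibition in 3D: complex spheroids (tumor PDC, HUVEC, MSC) treated with POLQ inhibitor combinations; where Cmax unknown, highest tested concentration 10 microM, except SN-38 at 1 microM.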

[1] = second compound 0.0316 µM, first compound 0.00316 µM
[2] = second compound 0.0316 µM, first compound 0.01 µM
[3] = second compound 0.0316 µM, first compound 0.0316 µM
[4] = second compound 0.0316 µM, first compound 0.1 µM
[5] = second compound 0.1 µM, first compound 0.00316 µM
[6] = second compound 0.1 µM, first compound 0.01 µM
[7] = second compound 0.1 µM, first compound 0.0316 µM
[8] = second compound 0.1 µM, first compound 0.1 µM
[9] = second compound 0.316 µM, first compound 0.00316 µM
[10] = second compound 0.316 µM, first compound 0.01 µM
[11] = second compound 0.316 µM, first compound 0.0316 µM
[12] = second compound 0.316 µM, first compound 0.1 µM
[13] = second compound 1 µM, first compound 0.00316 µM
[14] = second compound 1 µM, first compound 0.01 µM
[15] = second compound 1 µM, first compound 0.0316 µM
[16] = second compound 1 µM, first compound 0.1 µM
[17] = second compound 3.16 µM, first compound 0.00316 µM
[18] = second compound 3.16 µM, first compound 0.01 µM
[19] = second compound 3.16 µM, first compound 0.0316 µM
[20] = second compound 3.16 µM, first compound 0.1 µM
[21] = second compound 10 µM, first compound 0.00316 µM
[22] = second compound 10 µM, first compound 0.01 µM
[23] = second compound 10 µM, first compound 0.0316 µM
[24] = second compound 10 µM, first compound 0.1 µM
[25] = second compound 0.0316 µM, first compound 0.316 µM
[26] = second compound 0.0316 µM, first compound 1 µM
[27] = second compound 0.1 µM, first compound 0.316 µM
[28] = second compound 0.1 µM, first compound 1 µM
[29] = second compound 0.316 µM, first compound 0.316 µM
[30] = second compound 0.316 µM, first compound 1 µM
[31] = second compound 1 µM, first compound 0.316 µM
[32] = second compound 1 µM, first compound 1 µM
[33] = second compound 3.16 µM, first compound 0.316 µM
[34] = second compound 3.16 µM, first compound 1 µM
[35] = second compound 10 µM, first compound 0.316 µM
[36] = second compound 10 µM, first compound 1 µM
[37] = second compound 0.0316 µM, first compound 3.16 µM
[38] = second compound 0.0316 µM, first compound 10 µM
[39] = second compound 0.1 µM, first compound 3.16 µM
[40] = second compound 0.1 µM, first compound 10 µM
[41] = second compound 0.316 µM, first compound 3.16 µM
[42] = second compound 0.316 µM, first compound 10 µM
[43] = second compound 1 µM, first compound 3.16 µM
[44] = second compound 1 µM, first compound 10 µM
[45] = second compound 3.16 µM, first compound 3.16 µM
[46] = second compound 3.16 µM, first compound 10 µM
[47] = second compound 10 µM, first compound 3.16 µM
[48] = second compound 10 µM, first compound 10 µM
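Further: spheroids exposed to compounds for seven days before readout.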

SMILES: CC[C@@]1(O)C(=O)OCc2c1cc1n(c2=O)Cc2cc3c(CN(C)C)c(O)ccc3nc2-1 + Cc1cccc(N(C)C(=O)C2C(O)CCN2c2nc(C)cc(C(F)(F)F)c2C#N)c1
- IC50 (second compound 0.0316 µM): 29.1 nM
- IC50 (second compound 0.1 µM): 32.4 nM
- IC50 (second compound 0.316 µM): 28 nM
- IC50 (second compound 1 µM): 26.5 nM
- IC50 (second compound 3.16 µM): 26.4 nM
- IC50 (second compound 10 µM): 23.1 nM
- viability, T/C (second compound 0.0316 µM, first compound 0.000316 µM): 102%
- viability, T/C (second compound 0.0316 µM, first compound 0.001 µM): 97.4%
- viability, T/C [1]: 99.8%
- viability, T/C [2]: 82.5%
- viability, T/C [3]: 47.7%
- viability, T/C [4]: 13.3%
- viability, T/C (second compound 0.1 µM, first compound 0.000316 µM): 118%
- viability, T/C (second compound 0.1 µM, first compound 0.001 µM): 104%
- viability, T/C [5]: 99%
- viability, T/C [6]: 103%
- viability, T/C [7]: 50.8%
- viability, T/C [8]: 13.7%
- viability, T/C (second compound 0.316 µM, first compound 0.000316 µM): 94.7%
- viability, T/C (second compound 0.316 µM, first compound 0.001 µM): 105%
- viability, T/C [9]: 97.5%
- viability, T/C [10]: 99.5%
- viability, T/C [11]: 44.1%
- viability, T/C [12]: 14.1%
- viability, T/C (second compound 1 µM, first compound 0.000316 µM): 99.7%
- viability, T/C (second compound 1 µM, first compound 0.001 µM): 96.4%
- viability, T/C [13]: 116%
- viability, T/C [14]: 89.4%
- viability, T/C [15]: 43%
- viability, T/C [16]: 12.4%
- viability, T/C (second compound 3.16 µM, first compound 0.000316 µM): 102%
- viability, T/C (second compound 3.16 µM, first compound 0.001 µM): 100%
- viability, T/C [17]: 113%
- viability, T/C [18]: 94.9%
- viability, T/C [19]: 41.6%
- viability, T/C [20]: 11.9%
- viability, T/C (second compound 10 µM, first compound 0.000316 µM): 97.4%
- viability, T/C (second compound 10 µM, first compound 0.001 µM): 97.7%
- viability, T/C [21]: 107%
- viability, T/C [22]: 86.8%
- viability, T/C [23]: 36%
- viability, T/C [24]: 11.6%

SMILES: CCc1c2c(nc3ccc(O)cc13)-c1cc3c(c(=O)n1C2)COC(=O)[C@]3(O)CC + Cc1cccc(N(C)C(=O)C2C(O)CCN2c2nc(C)cc(C(F)(F)F)c2C#N)c1
- IC50 (second compound 0.0316 µM): 3.34 nM
- IC50 (second compound 0.1 µM): 3.49 nM
- IC50 (second compound 0.316 µM): < 3.16 nM
- IC50 (second compound 1 µM): < 3.16 nM
- IC50 (second compound 3.16 µM): < 3.16 nM
- IC50 (second compound 10 µM): < 3.16 nM
- viability, T/C [1]: 52.3%
- viability, T/C [2]: 9.87%
- viability, T/C [3]: 7.42%
- viability, T/C [4]: 5.03%
- viability, T/C [25]: 3.07%
- viability, T/C [26]: 1.53%
- viability, T/C [5]: 53.6%
- viability, T/C [6]: 14.6%
- viability, T/C [7]: 7.37%
- viability, T/C [8]: 4.23%
- viability, T/C [27]: 3.04%
- viability, T/C [28]: 1.53%
- viability, T/C [9]: 46.3%
- viability, T/C [10]: 13.7%
- viability, T/C [11]: 6.83%
- viability, T/C [12]: 5.76%
- viability, T/C [29]: 2.86%
- viability, T/C [30]: 1.53%
- viability, T/C [13]: 44.8%
- viability, T/C [14]: 15.2%
- viability, T/C [15]: 8.04%
- viability, T/C [16]: 5.03%
- viability, T/C [31]: 2.97%
- viability, T/C [32]: 1.31%
- viability, T/C [17]: 40%
- viability, T/C [18]: 12.1%
- viability, T/C [19]: 6.92%
- viability, T/C [20]: 5.22%
- viability, T/C [33]: 2.69%
- viability, T/C [34]: 1.55%
- viability, T/C [21]: 28.5%
- viability, T/C [22]: 11.5%
- viability, T/C [23]: 7.06%
- viability, T/C [24]: 3.56%
- viability, T/C [35]: 2.83%
- viability, T/C [36]: 2.09%

SMILES: Nc1ccn(C2OC(CO)C(O)C2(F)F)c(=O)n1 (stereo not drawn) + Cc1cccc(N(C)C(=O)C2C(O)CCN2c2nc(C)cc(C(F)(F)F)c2C#N)c1
- IC50 (second compound 0.0316 µM): 78.9 nM
- IC50 (second compound 0.1 µM): 101 nM
- IC50 (second compound 0.316 µM): 76.9 nM
- IC50 (second compound 1 µM): 85.7 nM
- IC50 (second compound 3.16 µM): 77.1 nM
- IC50 (second compound 10 µM): 69.8 nM
- viability, T/C [3]: 84.7%
- viability, T/C [4]: 41%
- viability, T/C [25]: 12.6%
- viability, T/C [26]: 12.4%
- viability, T/C [37]: 8.52%
- viability, T/C [38]: 7.11%
- viability, T/C [7]: 86.4%
- viability, T/C [8]: 50.5%
- viability, T/C [27]: 13.6%
- viability, T/C [28]: 9.98%
- viability, T/C [39]: 8.34%
- viability, T/C [40]: 6.1%
- viability, T/C [11]: 81.7%
- viability, T/C [12]: 40.7%
- viability, T/C [29]: 11.9%
- viability, T/C [30]: 10.9%
- viability, T/C [41]: 8.07%
- viability, T/C [42]: 5.67%
- viability, T/C [15]: 83.7%
- viability, T/C [16]: 44.8%
- viability, T/C [31]: 12%
- viability, T/C [32]: 11.7%
- viability, T/C [43]: 8.68%
- viability, T/C [44]: 6.87%
- viability, T/C [19]: 86.5%
- viability, T/C [20]: 39.4%
- viability, T/C [33]: 14.8%
- viability, T/C [34]: 10.2%
- viability, T/C [45]: 10.4%
- viability, T/C [46]: 6.57%
- viability, T/C [23]: 84.5%
- viability, T/C [24]: 34.4%
- viability, T/C [35]: 13.3%
- viability, T/C [36]: 12.7%
- viability, T/C [47]: 8.82%
- viability, T/C [48]: 8.17%

SMILES: O=C(c1cc(Cc2n[nH]c(=O)c3ccccc23)ccc1F)N1CCN(C(=O)C2CC2)CC1 + Cc1cccc(N(C)C(=O)C2C(O)CCN2c2nc(C)cc(C(F)(F)F)c2C#N)c1
- IC50 (second compound 0.0316 µM): > 10000 nM
- IC50 (second compound 0.1 µM): > 10000 nM
- IC50 (second compound 0.316 µM): > 10000 nM
- IC50 (second compound 1 µM): > 10000 nM
- IC50 (second compound 3.16 µM): > 10000 nM
- IC50 (second compound 10 µM): > 10000 nM
- viability, T/C [3]: 117%
- viability, T/C [4]: 114%
- viability, T/C [25]: 117%
- viability, T/C [26]: 107%
- viability, T/C [37]: 101%
- viability, T/C [38]: 80.1%
- viability, T/C [7]: 111%
- viability, T/C [8]: 103%
- viability, T/C [27]: 108%
- viability, T/C [28]: 109%
- viability, T/C [39]: 101%
- viability, T/C [40]: 75.3%
- viability, T/C [11]: 105%
- viability, T/C [12]: 95%
- viability, T/C [29]: 110%
- viability, T/C [30]: 111%
- viability, T/C [41]: 103%
- viability, T/C [42]: 76.8%
- viability, T/C [15]: 104%
- viability, T/C [16]: 108%
- viability, T/C [31]: 111%
- viability, T/C [32]: 107%
- viability, T/C [43]: 106%
- viability, T/C [44]: 81.2%
- viability, T/C [19]: 93.8%
- viability, T/C [20]: 103%
- viability, T/C [33]: 120%
- viability, T/C [34]: 103%
- viability, T/C [45]: 105%
- viability, T/C [46]: 66.9%
- viability, T/C [23]: 109%
- viability, T/C [24]: 113%
- viability, T/C [35]: 114%
- viability, T/C [36]: 106%
- viability, T/C [47]: 96.7%
- viability, T/C [48]: 65.1%
